Data taken from patent publication US20240139167A1, “LYSOSOME-ASSOCIATED MEMBRANE PROTEIN TARGETING COMPOUNDS AND USES THEREOF” (HADASIT MEDICAL RESEARCH SERVICES AND DEVELOPMENT LTD., priority 2021, published 2024).
“Also recorded” adds a separate entry of the source.

What was measured:
[1] = tested on: PD patient-derived skin fibroblasts; assay: Autophagic flux in Pompe disease fibroblasts; format: cell-based, human; settings: serum starved, 50 μM, 24 h
Procedure: FIG. 15 includes a micrograph and a vertical bar graph showing autophagic flux in PD patient-derived skin fibroblasts, serum starved and treated (or not) with 50 μM 144DG11 (indicated as comp. A).
144DG11 can activate autophagy in the lysosomal storage disease (LSD) Pompe disease (PD) in which autophagy is perturbed (FIG. 15). […] This ratio serves as the most accepted marker for autophagy and autophagic flux. […] These observations indicate that, as in the GSD APBD, 144DG11 can activate autophagy also in the typical LSD PD in which autophagy is disturbed.

PD primary fibroblasts = assay: PAS staining of glycogen in Pompe disease fibroblasts; format: cell-based, human; settings: 24 h, 50 μM; listed as 144DG11
Source text: Yellow, Calcein used for cell segmentation, Blue, DAPI nuclear stain.

Gbe^ys/ys mice = assay: In vivo metabolism in metabolic cages; settings: 9 months old mice
Procedure: FIGS. 3A-3I include a graph of the effect of Compound 1 on in vivo metabolism; mice were monitored by the Promethion High-Definition Behavioral Phenotyping System (Sable Instruments, Inc.) over a 24 hr period. Effective mass was calculated by power of 0.75. Data are mean±SEM from n=11 9 months old mice in the wt. control vehicle arm, n=6 9 months old mice in the GBE^ys/ys vehicle arm and n=7 9 months old mice in the Gbe^ys/ys 144DG11 (Compound 1)-treated arm. All injections were from the age of 4 months. […] Blood metabolic panel based on n=5, 9.5 months old mice treated as indicated (3I). Blood glucose was increased, and blood triglycerides decreased in Gbe^ys/ys […] by Compound 1 (p<0.05, Student's t-tests). *p<0.05 v wt. controls, #p<0.05 v GBE^ys/ys vehicle treated mice;
The effect of Compound 1 on various metabolic parameters was determined in vivo using metabolic cages. Fuel preference at the whole animal level is determined by the respiratory quotient (RQ, the ratio of CO2 produced to O2 consumed). Lower RQ indicates higher fat burn, while higher RQ indicates higher carbohydrate burn. […] Stimulation of ambulatory activity (FIG. 3E) and of meal size and water intake (FIGS. 3F-3H) are in line with this observation of stimulation of carbohydrate catabolism in affected animals by Compound 1. Moreover, put together, the increased fuel burning, and food intake indicate that Compound 1 can improve metabolic efficiency in the affected animals.

luminal portion of LAMP1 = target: T1, luminal portion of LAMP1 (Homo sapiens, UniProt P11279); assay: Surface plasmon resonance (SPR); format: binding
T1 sequence (P11279 29-382 limits assumed): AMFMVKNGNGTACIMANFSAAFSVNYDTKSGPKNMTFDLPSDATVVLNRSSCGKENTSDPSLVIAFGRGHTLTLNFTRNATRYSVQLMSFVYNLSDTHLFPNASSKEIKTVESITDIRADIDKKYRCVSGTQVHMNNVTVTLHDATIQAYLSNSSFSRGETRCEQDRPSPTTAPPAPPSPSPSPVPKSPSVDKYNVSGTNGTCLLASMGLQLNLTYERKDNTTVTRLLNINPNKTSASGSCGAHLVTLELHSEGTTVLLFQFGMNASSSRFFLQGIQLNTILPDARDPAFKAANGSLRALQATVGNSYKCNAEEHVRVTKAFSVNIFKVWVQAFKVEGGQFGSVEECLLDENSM
Source text: FIGS. 5A-5E include images of experiments showing hetero-assembly forms around Compound 1 and not around endogenous molecules as shown by the liquid crystals formed in experiments 1-3 (5A); image of STRING network of targets at the interactome of Compound 1 (5B); cellular thermal shift assay (CETSA) of different targets of the Compound 1 hetero-assembly (5C); surface plasmon resonance sensograms of binding of Compound 1 to LAMP1 (5D); sensogram experiments consisting of association and dissociation at the indicated concentration ranges and pH values were then conducted.
The inventors have investigated the mechanism of action of 144DG11. To that end, the inventors first decided to determine its molecular target. Nematic protein organization technique (NPOT, Inoviem, Ltd.) was applied to homogenates of APBD patient fibroblasts. The NPOT analysis has discovered protein hetero assemblies uniquely generated around 144DG11 only when it was added to the cell homogenates (FIG. 5A). The next step in this analysis has identified the interactome of protein targets interacting with 144DG11 in APBD patients' fibroblasts. […] Moreover, the inventors have tested by cellular thermal shift assay the specific interaction of 144DG11 with 6 of the 8 targets discovered by NPOT. […] This finding relates to a novel pathogenic hypothesis connecting cellular glycogen overload with glycogen trafficking to lysosomes via Starch Binding Domain containing Protein 1. To validate 144DG11's interaction with LAMP1, the inventors have used surface plasmon resonance (SPR) technology. […] The inventors hypothesized that this slow rate of association could be explained by inhibited diffusion of 144DG11 due to the bulky oligosaccharides at the glycosylation sites. Therefore, the inventors have repeated the SPR experiments with a chemically deglycosylated luminal LAMP1 domain. […] The inventors have further investigated 144DG11 binding to LAMP1 by structure-based computational docking. In the search for a putative binding site for Compound 1 in LAMP1, the inventors have analyzed the N- and C-terminal subdomains of its luminal domain (residues A29-R195 and S217-D378, respectively), which have a similar topology. These domains were modeled and computationally docked against decoys to Compound 1 at the intralysosomal pH 5 based on the known crystal structure of mouse LAMP1 C-terminal domain (PDB ID 5gv0). […] However, they might still affect Compound 1 diffusion.

Agl^−/− mice = assay: Blood metabolic panel in Agl^-/- mice (GSD3); format: in vivo; settings: 6-months mice treated for 3 months
Source text: FIG. 18 includes a vertical bar graph showing blood metabolic panel based on n=5-6 6-months wildtype or Agl^−/− mice treated as indicated for 3 months.

[2] = target: T2, deglycosylated luminal LAMP1 domain (Homo sapiens, UniProt P11279); assay: SPR with chemically deglycosylated LAMP1; format: binding
T2 construct: repeated the SPR experiments with a chemically deglycosylated luminal LAMP1 domain
T2 sequence (P11279 29-382): T1 sequence (P11279 29-382 limits assumed)
Procedure: The inventors have investigated the mechanism of action of 144DG11. To that end, the inventors first decided to determine its molecular target. Nematic protein organization technique (NPOT, Inoviem, Ltd.) was applied to homogenates of APBD patient fibroblasts. The NPOT analysis has discovered protein hetero assemblies uniquely generated around 144DG11 only when it was added to the cell homogenates (FIG. 5A). The next step in this analysis has identified the interactome of protein targets interacting with 144DG11 in APBD patients' fibroblasts. […] Moreover, the inventors have tested by cellular thermal shift assay the specific interaction of 144DG11 with 6 of the 8 targets discovered by NPOT. […] This finding relates to a novel pathogenic hypothesis connecting cellular glycogen overload with glycogen trafficking to lysosomes via Starch Binding Domain containing Protein 1. To validate 144DG11's interaction with LAMP1, the inventors have used surface plasmon resonance (SPR) technology. […] The inventors hypothesized that this slow rate of association could be explained by inhibited diffusion of 144DG11 due to the bulky oligosaccharides at the glycosylation sites. […] In the search for a putative binding site for Compound 1 in LAMP1, the inventors have analyzed the N- and C-terminal subdomains of its luminal domain (residues A29-R195 and S217-D378, respectively), which have a similar topology. […]

COCCN(Cc1sccc1C)C(=O)c1cc(C)nc(O)c1 [Compound 1]
sensitivity to vinblastine (increase in the LC3II/LC3I ratio) [1]: increased
glycogen (PAS staining) (PD primary fibroblasts): reduce glycogen; also recorded: significantly lowered PAS staining
ambulatory activity (Gbe^ys/ys mice): Stimulation
carbohydrate burning at the expense of fat burning (Gbe^ys/ys mice): increases
meal size and water intake (Gbe^ys/ys mice): Stimulation
total energy expenditure (Gbe^ys/ys mice): increases
respiratory quotient (RQ) (Gbe^ys/ys mice; injections from age 4 months): increased RQ to even higher levels than those of the wild type (wt) animals
binding to LAMP1 (luminal portion of LAMP1; cytoplasmic pH 7): not at the cytoplasmic pH 7
binding to LAMP1 (luminal portion of LAMP1; intermediate pH 6): some binding starting
binding to LAMP1 (luminal portion of LAMP1; lysosomal pH 4.5-5): specific and dose-dependent binding
kon (rate of association) (luminal portion of LAMP1; pH 4.5): slow
Kd (luminal portion of LAMP1; read-out: apparent KD): 6.3 mM
blood triglycerides (Agl^−/− mice): decreased
binding to deglycosylated LAMP1 [2]: did not bind
